For one test, the target named is T1, APOL1 G1 (Homo sapiens, UniProt O14791, I384M/S342G).
T1 sequence (O14791 28-398 S342G/I384M): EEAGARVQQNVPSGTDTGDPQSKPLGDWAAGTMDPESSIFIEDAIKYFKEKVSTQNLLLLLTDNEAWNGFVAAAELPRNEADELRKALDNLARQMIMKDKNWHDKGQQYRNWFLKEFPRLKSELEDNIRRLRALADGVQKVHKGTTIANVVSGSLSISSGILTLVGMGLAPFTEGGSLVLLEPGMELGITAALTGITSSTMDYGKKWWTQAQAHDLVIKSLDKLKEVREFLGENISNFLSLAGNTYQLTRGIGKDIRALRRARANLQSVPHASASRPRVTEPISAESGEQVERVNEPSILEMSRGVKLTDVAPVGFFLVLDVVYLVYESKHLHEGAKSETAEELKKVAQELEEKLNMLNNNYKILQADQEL
The test can be described thus: Trypanosoma brucei brucei Lysis Assay Using APOL1 Recombinant Protein (AlamarBlue viability readout). The class given is cell-based. The settings on record: for IC50: IP50 = IC50 for cell proliferation, read-out: Trypanosome Assay IP50; for Emax: read-out: Trypanosome Assay Max Activity (%). The gist of the method:
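Percent viability comes from AlamarBlue (resazurin→resorufin) fluorescence interpolated on a standard curve of known parasite numbers, with no-APOL1 wells as 100%. Parasites (Lister 427 bloodstream form, 120,000/well, serum-free assay medium) meet 0.05 μg/mL APOL1 (~EC90). Compounds span a 10-point series, 0.1% DMSO final.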
(Resazurin is reduced to fluorescent resorufin, in cell work by metabolically active cells.)

In another test the target is T2, APOL1 (Homo sapiens, UniProt O14791).
T2 sequence (O14791 1-398 S342G/I384M): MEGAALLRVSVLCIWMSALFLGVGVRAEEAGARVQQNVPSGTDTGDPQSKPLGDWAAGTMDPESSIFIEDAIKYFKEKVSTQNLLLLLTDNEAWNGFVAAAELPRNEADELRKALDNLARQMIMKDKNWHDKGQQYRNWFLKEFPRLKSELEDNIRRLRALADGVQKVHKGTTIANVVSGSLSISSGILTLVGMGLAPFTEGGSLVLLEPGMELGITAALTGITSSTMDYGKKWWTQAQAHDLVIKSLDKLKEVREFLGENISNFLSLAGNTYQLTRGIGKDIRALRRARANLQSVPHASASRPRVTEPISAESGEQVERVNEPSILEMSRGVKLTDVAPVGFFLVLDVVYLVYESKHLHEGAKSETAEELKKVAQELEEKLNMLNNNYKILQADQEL
Kind of test: Multi-Tox Assay (MultiTox-Fluor Multiplex Cytotoxicity Assay in tet-inducible APOL1 T-REx-HEK293 cells; Table 46 does not say which APOL1 variant G0/G1/G2). Format: cell-based. As to conditions: APOL1 variant not given; for IC50: IP50 = IC50 for cell proliferation.

Like-named read-outs stand apart in the source and are kept apart here.

Experimental findings from patent US12421249B2, “Inhibitors of APOL1 and methods of using same” (Vertex Pharmaceuticals Incorporated, priority 2020, dated 2025) are described below.

In the case of `C[C@H]1CC2(CC(c3cnn(C)c3)N1)OCC(O)c1cc(Cl)sc12` (single isomer, unassigned) [Compound 175], on APOL1 G1 (Trypanosome Assay), the IC50 was < 50 nM and the Emax worked out at 106%. For the same compound, at APOL1, the IC90 (usually the concentration needed for an effect of 90%) was < 50 nM, the “Multi-Tox Assay Max Activity (%)” value is reported as 100.0% and the IC50 was < 50 nM.

Consider `C[C@H]1CC2(CC(c3cnn(C)c3)N1)OCC(O)c1cc(Cl)sc12` (single isomer, unassigned) [Compound 176], for which, on APOL1 G1 (Trypanosome Assay), the “Trypanosome Assay Max Activity (%)” value came to 115.5% and the IC50 is < 50 nM. In addition, on APOL1, the IC90 is < 50 nM, the “Multi-Tox Assay Max Activity (%)” value is 100.0% and the IC50 is < 50 nM.

With `C[C@H]1C[C@@]2(C[C@@H](c3cn(C)nn3)N1)OCC(O)(C(F)F)c1cc(Cl)sc12` (single isomer, unassigned) [Compound 184], the IC50 was 50 to 500 nM on APOL1 G1 (Trypanosome Assay) and < 50 nM against APOL1.

On to `C[C@H]1C[C@@]2(C[C@@H](c3cn(C)nn3)N1)OCC(O)(C(F)F)c1cc(Cl)sc12` (single isomer, unassigned) [Compound 185], for which, at APOL1 G1 (Trypanosome Assay), the “Trypanosome Assay Max Activity (%)” value amounted to 99.0% and the IC50 is 50 to 500 nM. Further, on APOL1, the IC90 is < 50 nM, the “Multi-Tox Assay Max Activity (%)” value is 99.5% and the IC50 was < 50 nM.

Regarding `C[C@@H]1CC2(C[C@H](C)N1)OCCc1sc(C(F)(F)F)cc12` (single isomer, unassigned) [Compound 196], at APOL1 G1 (Trypanosome Assay), the IC50 lay within 50 to 500 nM and the Emax stood at 111%. Besides, at APOL1, the IC50 is 50 to 500 nM.

As for `C[C@@H]1CC2(C[C@H](C)N1)OCCc1cc(Br)sc12` (single isomer, unassigned) [Compound 197], the IC50 on APOL1 G1 (Trypanosome Assay) and on APOL1 was 50 to 500 nM each time. Besides, the Emax at APOL1 G1 came out at 106%.

With `C[C@@H]1CC2(C[C@H](C)N1)OCCc1cc(C3CC(F)(F)C3)sc12` (single isomer, unassigned) [Compound 198], the IC50 at APOL1 G1 (Trypanosome Assay) and on APOL1 was 50 to 500 nM each time.

`CCc1cc2c(s1)C1(C[C@@H](C)N[C@@H](C)C1)OCC2` (single isomer, unassigned) [Compound 199]: the figures for the IC50 at APOL1 G1 (Trypanosome Assay) and on APOL1 were 50 to 500 nM and < 50 nM, respectively. For the same compound, the Emax at APOL1 G1 came out at 110%.

Take `CC(C)c1cc2c(s1)C1(C[C@@H](C)N[C@@H](C)C1)OCC2` (single isomer, unassigned) [Compound 200]: the IC50 on APOL1 G1 (Trypanosome Assay) and on APOL1 was 50 to 500 nM in each case. Also, the Emax at APOL1 G1 worked out at 98.7%.

As to `CC(C)Cc1cc2c(s1)C1(C[C@@H](C)N[C@@H](C)C1)OCC2` (single isomer, unassigned) [Compound 201], the IC50 on APOL1 G1 (Trypanosome Assay) was > 500 nM; at APOL1, 50 to 500 nM. Besides, on APOL1 G1 (Trypanosome Assay), the Emax amounted to 76.7%.

Regarding `C[C@@H]1CC2(C[C@H](C)N1)OCCc1cc(C3CCCCC3)sc12` (single isomer, unassigned) [Compound 202], on APOL1 G1 (Trypanosome Assay), the IC50 was > 500 nM and the Emax came to 19%. Also, the IC50 at APOL1 is > 500 nM.

Take `C[C@@H]1CC2(C[C@H](C)N1)OCCc1cc(CC(F)F)sc12` (single isomer, unassigned) [Compound 203]: on APOL1 G1 (Trypanosome Assay), the IC50 was < 50 nM and the Emax stood at 102%. At APOL1, the IC50 is < 50 nM.

As to `C[C@@H]1CC2(C[C@H](C)N1)OCCc1cc(Cl)sc12` (single isomer, unassigned) [Compound 204], the IC50 at APOL1 G1 (Trypanosome Assay) and on APOL1 was 50 to 500 nM each time. At APOL1 G1, the Emax came out at 112%.

On to `Clc1cc2c(s1)C1(C[C@@H](C3CC3)N[C@@H](C3CC3)C1)OCC2` (single isomer, unassigned) [Compound 206], for which, on APOL1 G1 (Trypanosome Assay), the IC50 was in the range of 50 to 500 nM and the Emax came out at 104%. Besides, the IC50 at APOL1 was < 50 nM.

On to `C[C@@H]1CC2(C[C@H](C)N1)OCCc1cc(C(F)(F)F)sc12` (single isomer, unassigned) [Compound 207], for which, at APOL1 G1 (Trypanosome Assay), the IC50 was < 50 nM and the Emax was 108%. For the same compound, the IC50 against APOL1 was < 50 nM.

For `C[C@@H]1CC2(C[C@H](C)N1)OCCc1c2sc(C(F)(F)F)c1CO` (single isomer, unassigned) [Compound 208], on APOL1 G1 (Trypanosome Assay), the IC50 lay in the range of 50 to 500 nM and the Emax turned out to be 103%. Further, at APOL1, the IC50 is < 50 nM.

Regarding `CC1CC2(CC(C3CC3(F)F)N1)OCCc1cc(Cl)sc12` (single isomer, unassigned) [Compound 212], at APOL1 G1 (Trypanosome Assay), the IC50 is < 50 nM and the Emax was 101%. Also, the IC50 on APOL1 is < 50 nM.

Turning to `CC1CC2(CC(C3CC3(F)F)N1)OCCc1cc(Cl)sc12` (single isomer, unassigned) [Compound 213], on APOL1 G1 (Trypanosome Assay), the “Trypanosome Assay Max Activity (%)” value worked out at 98.7% and the IC50 was in the range of 50 to 500 nM. In addition, at APOL1, the IC90 is 50 to 500 nM, the “Multi-Tox Assay Max Activity (%)” value came to 99.5% and the IC50 was in the range of 50 to 500 nM.

`Cc1cc2c(s1)C1(C[C@@H](c3cn(C)nn3)N[C@@H](C)C1)OCC2` (stereo in doubt) [Compound 3]: the IC50 on APOL1 G1 (Trypanosome Assay) and against APOL1 was < 50 nM each time. In addition, on APOL1 G1 (Trypanosome Assay), the Emax was 107%.

Consider `CCc1cc2c(s1)CCOC21C[C@@H](c2cn(C)nn2)N[C@@H](C)C1` (stereo in doubt) [Compound 4], for which, at APOL1 G1 (Trypanosome Assay), the IC50 was < 50 nM and the Emax came out at 118%. The IC50 against APOL1 was < 50 nM.

Regarding `CCc1cc2c(s1)CCO[C@@]21C[C@@H](c2cnn(CCS(C)(=O)=O)c2)N[C@@H](C)C1` (stereo in doubt) [Compound 5], at APOL1 G1 (Trypanosome Assay), the IC50 lay in the range of 50 to 500 nM and the Emax was 111%. Further, at APOL1, the “Multi-Tox Assay Max Activity (%)” value was determined as 100.0% and the IC50 was 50 to 500 nM.

As for `CCc1cc2c(s1)C1(C[C@@H](c3cn(C)nn3)N[C@@H](C)C1)OCC2` (stereo in doubt) [Compound 6], at APOL1 G1 (Trypanosome Assay), the IC50 is < 50 nM and the Emax is 102%. On APOL1, the IC50 is < 50 nM.

Turning to `CCc1cc2c(s1)C(C)COC21C[C@@H](c2cn(C)nn2)N[C@@H](C)C1` (stereo in doubt) [Compound 10], at APOL1 G1 (Trypanosome Assay), the IC50 was 50 to 500 nM and the Emax is 101%. Also, on APOL1, the “Multi-Tox Assay Max Activity (%)” value worked out at 99.7% and the IC50 is < 50 nM.

As for `CCc1cc2c(s1)C(C)COC21C[C@@H](c2cn(C)nn2)N[C@@H](C)C1` (stereo in doubt) [Compound 11], at APOL1 G1 (Trypanosome Assay), the “Trypanosome Assay Max Activity (%)” value was 101.5% and the IC50 was < 50 nM. At APOL1, the IC90 was < 50 nM, the “Multi-Tox Assay Max Activity (%)” value was 99.3% and the IC50 was < 50 nM.

With `CC1COC2(C[C@@H](c3cn(C)nn3)N[C@@H](C)C2)c2cc(Cl)sc21` (stereo in doubt) [Compound 12], at APOL1 G1 (Trypanosome Assay), the IC50 is < 50 nM and the Emax was 102%. Besides, at APOL1, the “Multi-Tox Assay Max Activity (%)” value amounted to 99.3% and the IC50 is < 50 nM.

`CC1COC2(C[C@@H](c3cn(C)nn3)N[C@@H](C)C2)c2cc(Cl)sc21` (stereo in doubt) [Compound 13]: at APOL1 G1 (Trypanosome Assay), the “Trypanosome Assay Max Activity (%)” value is reported as 100.0% and the IC50 was < 50 nM. Moreover, at APOL1, the IC90 was < 50 nM, the “Multi-Tox Assay Max Activity (%)” value worked out at 99.0% and the IC50 was < 50 nM.

For `CC1COC2(C[C@@H](c3cn(C)nn3)N[C@@H](C)C2)c2cc(C(F)(F)F)sc21` (stereo in doubt) [Compound 14], on APOL1 G1 (Trypanosome Assay), the IC50 was < 50 nM and the Emax is 102%. Besides, on APOL1, the IC50 is < 50 nM.

As for `C[C@H]1CC2(C[C@@H](c3cn(C)nn3)N1)OCC(C)(C)c1sc(Cl)cc12` (stereo in doubt) [Compound 15], on APOL1 G1 (Trypanosome Assay), the IC50 is < 50 nM and the Emax amounted to 101%. Besides, on APOL1, the “Multi-Tox Assay Max Activity (%)” value was 99.0% and the IC50 was < 50 nM.

Take `C[C@H]1CC2(C[C@@H](c3cn(C)nn3)N1)OCC(C)(C)c1sc(C(F)(F)F)cc12` (stereo in doubt) [Compound 16]: on APOL1 G1 (Trypanosome Assay), the IC50 lay in the range of 50 to 500 nM and the Emax came out at 99.5%. For the same compound, on APOL1, the “Multi-Tox Assay Max Activity (%)” value was determined as 100.0% and the IC50 is < 50 nM.

With `C[C@H]1C[C@@]2(C[C@@H](c3ccc(O)c(F)c3)N1)OCCc1cc(Cl)sc12` (stereo in doubt) [Compound 51], on APOL1 G1 (Trypanosome Assay), the IC50 is < 50 nM and the Emax came to 102%. In addition, at APOL1, the “Multi-Tox Assay Max Activity (%)” value was determined as 99.7% and the IC50 was < 50 nM.

For the compound `C[C@H]1C[C@@]2(C[C@@H](c3cnc(-c4cnn(C)c4)nc3)N1)OCCc1cc(Cl)sc12` (stereo in doubt) [Compound 61], the IC50 at APOL1 G1 (Trypanosome Assay) and at APOL1 was < 50 nM each time. Also, at APOL1 G1 (Trypanosome Assay), the Emax turned out to be 105%.
